Measured values: a melting point compilation (Tetko et al.; mined from patent text by program, amines drawn as free bases though some values may be those of a salt)

Row | melting point | Compound
1 | 155 to 157 °C | CCCc1nc(C(C)(C)O)c(C(=O)O)n1Cc1ccc(-c2ccccc2C(=O)OC(C)(C)C)cc1
2 | 245 to 248 °C | O=C(Nc1nc(-c2ccccn2)nc2ccccc12)C(F)(F)F
3 | 175 to 178 °C | COc1ccc(-c2nc(=O)c3ccccc3o2)cc1
4 | 189 to 190 °C | Cc1ccc(-n2nc(C(C)(C)C)cc2NC(=O)Nc2ccc(OCCc3ccncc3)c3ccccc23)cn1
5 | 118 to 120 °C | CCCCOc1ccc2c(O)c(C(=O)NCCO)nc(Cl)c2c1
6 | 80 to 85 °C | CCCCN(C(=O)N[C@@H](CC(=O)O)c1ccc2c(c1)OCO2)C1CC(=O)N(Cc2ccccc2)C1=O (some centres not stated)
7 | 144 °C | CCOC(=O)C(=CC=C(SC)C(=O)c1ccc(O)c(O)c1)N(C)C
8 | 229 to 230 °C | CCOCc1nc2c(N)nc3ccccc3c2n1CCCCS(=O)(=O)Nc1ccc(OC)cc1
9 | 247 to 248 °C | CC(C)(C)c1cc(CCC(=O)O)cc2nc(-c3ccc(-c4nc5cc(CCC(=O)O)cc(C(C)(C)C)c5o4)s3)oc12
10 | 258 to 259 °C | O=C1c2ccccc2-c2c1c1ccc([N+](=O)[O-])cc1c(=O)n2CCCNS(=O)(=O)c1ccccc1
11 | 152 to 154 °C | Cc1cccc(C2(CC(=O)O)CNC(=O)C2)c1 (configuration not stated)
12 | 96.5 to 97.5 °C | CCCCCS(=O)(=O)NC(=O)CCc1ccc(OCCC2(C)OCCO2)cc1Oc1ncc(C(F)(F)F)cc1Cl
13 | 88 to 95 °C | CCOc1c(OC)cc([N+](=O)[O-])c2ncccc12
14 | 136 to 137 °C | CCCCCCCCCCc1ccc(C(N)(CO)CO)cc1
15 | 222 to 223 °C | COc1cc(OC)c2c(=O)[nH]c(-c3ccc(OCCNC(C)C)c(-c4cccc(S(C)(=O)=O)c4)n3)nc2c1
16 | 73 to 74 °C | c1ccc(COc2cccnc2Cn2ccnc2)cc1
17 | 162 to 163 °C | Cc1sc(-c2cccc(F)c2)nc1O
18 | 140 to 141 °C | COCC(=O)Nc1cccc(-c2ccnc(NCCc3ccc(OC)c(OC)c3)n2)c1
19 | 194 °C | O=Cc1cnc2n1CCc1ccccc1C2=C1CCN(CCc2ccc(OCc3ccc4ccccc4n3)cc2)CC1
20 | 73 to 75 °C | CCOP(=O)(CC=CC(=O)O)OCC
21 | 96.8 °C | O=C(NC1CC1)c1cc(Nc2nc(N3CCC[C@H]3CO)nc3ccoc23)n[nH]1
22 | > 300 °C | COc1c(-c2ccc3cc(NS(C)(=O)=O)ccc3c2)cc(-n2ccc(=O)[nH]c2=O)cc1C(C)(C)C(=O)O
23 | 139 to 141 °C | O=C(NC1CCCCC1)NS(=O)(=O)c1ccc2c(c1)CCN(C(=O)N1CCCC1)CC2
24 | 248 to 249 °C | COc1cccc(N(C)c2nc(NC(=O)C(C)(C)C)nc3[nH]c4ccccc4c23)c1

Row | melting point | Compound
25 | 164 to 166 °C | O=C(CNC(=O)c1ccc(F)cc1)c1cccnc1
26 | 235 to 237 °C | CCc1nc(N)nc(N)c1-c1ccc(N(C)Cc2ccc(C(=O)NC)cc2)c([N+](=O)[O-])c1
27 | 115 to 116 °C | C#CCCn1ncc2c(N)c(C(=O)OCC=C)c(C)nc21
28 | 136 to 138 °C | NC(=O)N1CCCC(CC(=O)c2ccc(F)cc2)C1 (configuration not stated)
29 | 193 °C | Cc1cccc(C)c1CS(=O)(=O)NCCc1c(CCCc2ccc(C(=O)O)cc2)c2cc(Cl)ccc2n1C(c1ccccc1)c1ccccc1
30 | 190 to 192 °C | C[C@]1(CN2CCN(N=Cc3cc4cc(C(F)(F)F)ccc4o3)CC2)Cn2cc([N+](=O)[O-])nc2O1
31 | 196 °C | Cc1ccccc1CC(=O)N1C[C@@H]2C(=O)CCC(c3ccccc3)(c3ccccc3)[C@@H]2C1 (racemic)
32 | 224 to 243 °C | CCc1nc2c(N)nc3ccccc3c2n1CC#Cc1cccc([N+](=O)[O-])c1
33 | 65 to 68 °C | CCC(CC)(CC)C(=O)O[C@H]1CCC=C2C=C[C@H](C)[C@H](CC[C@@H]3C[C@@H](O)CC(=O)O3)[C@H]21
34 | 97 to 98 °C | CC(C)(C)OC(=O)[C@@H](CCc1ccc([N+](=O)[O-])cc1)OS(=O)(=O)c1ccc([N+](=O)[O-])cc1
35 | 149 °C | COc1ccc2ccccc2c1C1CCN(CCCCNC(=O)c2ccc(-c3ccc(Cl)cc3)cc2)CC1
36 | 253 to 255 °C | O=C(O)CCC(=O)c1ccc(NC(=O)c2ccc(F)cc2)cc1
37 | > 340 °C | O=c1[nH]c2ccsc2[nH]c1=O
38 | 129 to 131 °C | COCCOCc1nn2c(-c3ccc(OC)cc3)nnc2c2ccccc12
39 | 237 to 239 °C | CCNC(=O)NNC(=O)c1ccc(Cl)cc1
40 | 110 °C | COC(C)=CC(=O)Nc1cccc(Br)c1
41 | 85 to 88 °C | CC(=O)N1CC(CCN2CC=CCC2c2ccc(C(F)(F)F)cc2)c2ccccc21 (configuration not stated)
42 | 98 to 99 °C | CCO/C=C/C(=O)Nc1cccc(Cl)c1OC
43 | 89 to 90 °C | C=CCSc1cc(-c2ccc(C(F)(F)F)cc2)ccc1C#N
44 | 106 °C | CCOC(=O)c1ccc(N2CCN(C)CC2)nn1
45 | 189 to 191 °C | CCCCOc1ccc(S(C)(=O)=O)cc1-c1nc2c(CC)nn(Cc3ccccn3)c2c(=O)[nH]1
46 | 128 to 131 °C | Cc1ccc(S(=O)(=O)NCC(Cc2ccccc2)NS(=O)(=O)c2ccc(C)cc2)cc1 (configuration not stated)
47 | 130 to 134 °C | CC(=N)NS(=O)(=O)C=Cc1ccccc1
48 | 108 to 111 °C | O=C(CCCCCCCCC(=O)CC(=O)c1ccccc1)CC(=O)c1ccccc1

Row | melting point | Compound
49 | 126 to 128 °C | COC(=O)C=Cc1ccc2c(c1)cc(C)n2S(=O)(=O)c1ccccc1
50 | 147 °C | CC(C)c1cc(C(=O)O)cc(C(C)C)c1O
51 | 150 °C | COc1n[nH]cc1-c1ccccc1
52 | 102 °C | CCCC[C@H](NC(=O)[C@H](CC(C)C)NC(=O)c1cc(F)ccc1F)C(=O)CSCc1ccco1
53 | 114 to 117 °C | CC(C)=CCCC(C)C1CCC2C3=CC=C4CC(O)CCC4(C)C3CCC21C (configuration not stated)
54 | 52 to 53 °C | O=Cc1c(O)cccc1[N+](=O)[O-]
55 | 74 to 75 °C | Cc1ccc(-c2nc(Cc3cccc(Br)c3)c(C)o2)cc1
56 | 76 to 77 °C | CCCCCCCCCCCCCCC(O)CO (configuration not stated)
57 | 186 to 191 °C | CS(=O)(=O)Nc1cc(NC(=O)CC(=O)C(F)(F)F)c(F)cc1C#N
58 | 154 to 158 °C | Nc1ncnc2c1c(-c1cccc(O)c1)nn2Cc1oc2ccccc2c(=O)c1-c1ccccc1
59 | 208 to 210 °C | O=C(CCc1ccc2cc(F)ccc2n1)NO
60 | 55 to 58.5 °C | CCSc1nc(C#N)c(C#N)nc1Cl
61 | 161 to 162 °C | COc1ccc(-c2nc(NC(=N)N3CCN(C)CC3)sc2-c2ccc(OC)cc2)cc1
62 | 79 to 80 °C | CCNc1ccc(F)c(-c2cccnc2)c1F
63 | 149 to 150 °C | O=C1OC2(CC(c3ccccc3C(F)(F)F)=NO2)c2ccccc21 (configuration not stated)
64 | 248 °C | CC(=O)N1CCC(C2=C(C#N)C(c3cccc4nonc34)c3c[nH]nc3N2)CC1 (configuration not stated)
65 | 62 to 65 °C | COC(=O)C(CCCCNC(=O)COCc1ccccc1)NC(=O)COCc1ccccc1 (configuration not stated)
66 | 127 to 133 °C | O=S(=O)(c1cnn(-c2c(Cl)cc(C(F)(F)F)cc2Cl)c1-n1cccn1)C(F)(F)F
67 | 144 °C | CC(C)(C)c1cccc(S(=O)(=O)n2c(Cc3ccc(C(=O)O)c(F)c3)cc3cc(C(F)(F)F)ccc32)c1
68 | 134 to 139 °C | COC(=O)[C@H](Cc1ccccc1)Oc1c(C)cc(-c2c3ccccc3c(Br)c3sc(C)c(C)c23)cc1C
69 | 288 to 290 °C | CCOC(=O)c1cnc2c3c(ccc2c1Cl)C(=O)C(C(C)=O)C=N3 (configuration not stated)
70 | 126 °C | O=C(NO)[C@H](CNS(=O)(=O)c1ccc(OCc2ccccc2)cc1)N1CCCCC1
71 | 99 to 101 °C | COc1ccc(-c2c(C=O)ccc3cc(OC)ccc23)cc1
72 | 250 °C | Cc1cc(-c2cc(C(F)(F)F)n3ncc(C(=O)O)c3n2)ccc1C(F)(F)F

Row | melting point | Compound
73 | 170 to 173 °C | CC(C)(C)NCC(O)COc1ccc(F)cc1-c1ccc(=S)[nH]n1 (configuration not stated)
74 | 188 to 190 °C | CN(C)C=Nc1c(-c2c(F)cc(F)cc2F)c(Cl)nc2ncnn12
75 | 160 to 163 °C | COC(=O)c1ncc(C(=O)NS(=O)(=O)c2ccccc2)cc1OC
76 | 69 to 70 °C | O=S(=O)(Nc1c(F)c(F)nc(F)c1F)C(F)(F)F
77 | 98 to 101 °C | C=CCc1c2c(cc3c(=O)cc(C(=O)OCC)oc13)CCCC2
78 | 114 °C | CCCO[C@H]1CC[C@H](c2cnc(-c3ccc(C#N)cc3)nc2)CC1
79 | 183 to 185 °C | COc1ccc(C(=O)Nc2ccccc2)cc1NC(=S)Nc1cccc(C#N)c1
80 | 268 °C | O=c1[nH]c2cc(Cl)ccc2c(NS(=O)(=O)c2ccccc2)c1-c1ccccc1
81 | 115 to 116 °C | CN(C(=O)OC(C)(C)C)c1cc(Oc2ccc(-n3ccnc3)cc2)ccc1N
82 | 269 to 271 °C | CN(C)c1cccc(-n2cc(C(=O)NC(=N)N)c3cccnc32)c1
83 | 59.3 to 60 °C | CCCCCCCCCCOC(=O)Oc1ccc(-c2ccc(C#N)cc2)cc1
84 | 85 to 87 °C | CC(=O)OC1CC(OCc2ccccc2)C2COC1O2 (configuration not stated)
85 | 225 °C | CCNc1ccc2c(c1)Cc1c-2[nH]c2ccccc12
86 | 140 to 141 °C | Nc1ccc(Br)cc1CS(=O)(=O)c1ccccc1
87 | 178 to 179 °C | CC1NC(=O)NN=C1c1ccc(NCCCN)cc1 (configuration not stated)
88 | 76 to 78 °C | CCOC(=O)C(C)CNc1c(C#N)cnn1-c1c(F)c(F)c(CC)c(F)c1F (configuration not stated)
89 | 216 to 218 °C | CCOc1cc(Cc2cnc(N)nc2N)cc2c1OC(C)(C)C=C2C
90 | 158 °C | Cc1csc2ccc3[nH]c4c(c3c12)CN(CCCC(c1ccc(F)cc1)c1ccc(F)cc1)CC4
91 | 84.5 to 86 °C | CN(C)C(=O)C1CC(=O)N(c2cc(C(F)(F)F)cc(C(F)(F)F)c2)C1 (configuration not stated)
92 | 300 °C | CC(=O)COc1cc(N2C(=O)c3ccccc3C2=O)ccc1N1C(=O)c2ccccc2C1=O
93 | 172 to 173 °C | COc1cc(NC(=O)C(F)(F)F)cc(OC)c1C(C)=O
94 | 93 to 96 °C | CCCCCCCN(CCCCCSc1nc(-c2ccccc2)c(-c2ccccc2)[nH]1)C(=O)NC
95 | 258 to 263 °C | O=C(Nc1cccc(Cl)c1)Nc1ccc(Br)cc1-c1nnn[nH]1
96 | 102 to 105 °C | CC(C)C(O)(C#Cc1ccsc1)c1cncnc1 (configuration not stated)

Row | Compound | melting point
97 | O=C(CBr)Nc1ccc(F)cc1C(=O)c1ccccc1Br | 110 to 114 °C
